Experiments:
Assay in all cases: selective drug sensitivity score (sDSS, relative to normal bone marrow) (sDSS (score)); higher = more potent and effective on the cell line relative to normal bone marrow cells
Settings in all cases: 72 h
380 = test system: 380
697 = test system: 697
ALL-SIL = test system: ALL-SIL
CCRF-HSB2 = test system: CCRF-HSB2
COG-LL-317 = test system: COG-LL-317
COG-LL-332h = test system: COG-LL-332h
COG-LL-355h = test system: COG-LL-355h
COG-LL-402h = test system: COG-LL-402h
HPB-ALL = test system: HPB-ALL
JURKAT = test system: JURKAT
KARPAS-45 = test system: KARPAS-45
KASUMI-9 = test system: KASUMI-9
KOPN-8 = test system: KOPN-8
MHH-CALL-4 = test system: MHH-CALL-4
NALL-1 = test system: NALL-1
PEER = test system: PEER
RCH-ACV = test system: RCH-ACV
SUP-B15 = test system: SUP-B15
TANOUE = test system: TANOUE
TMD5 = test system: TMD5
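Further: ALL cell lines in 384-well plates, five doses spanning 10,000-fold, each plate scaled between vehicle and 100 µmol/L benzalkonium chloride controls, sDSS an adapted area-under-curve metric.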

| Structure (SMILES) | selective drug sensitivity score 380 | selective drug sensitivity score 697 | selective drug sensitivity score (ALL-SIL) | selective drug sensitivity score (CCRF-HSB2) | selective drug sensitivity score (COG-LL-317) | selective drug sensitivity score (COG-LL-332h) | selective drug sensitivity score (COG-LL-355h) | selective drug sensitivity score (COG-LL-402h) | selective drug sensitivity score (HPB-ALL) | selective drug sensitivity score (JURKAT) | selective drug sensitivity score (KARPAS-45) | selective drug sensitivity score (KASUMI-9) | selective drug sensitivity score (KOPN-8) | selective drug sensitivity score (MHH-CALL-4) | selective drug sensitivity score (NALL-1) | selective drug sensitivity score (PEER) | selective drug sensitivity score (RCH-ACV) | selective drug sensitivity score (SUP-B15) | selective drug sensitivity score (TANOUE) | selective drug sensitivity score (TMD5) |
| --- | --- | --- | --- | --- | --- | --- | --- | --- | --- | --- | --- | --- | --- | --- | --- | --- | --- | --- | --- | --- |
| CC(=O)[C@]1(O)Cc2c(O)c3c(c(O)c2[C@@H](O[C@H]2C[C@H](N)[C@H](O)[C@H](C)O2)C1)C(=O)c1ccccc1C3=O [Idarubicin] (top concentration 1000 nM) | 13.7 | 8.84 | 4.64 | 12.3 | 13.2 | 10 | 3.14 | 14.9 | 3.14 | 3.34 | -2.36 | 4.94 | 8.74 | 7.64 | -3.66 | -4.86 | 12.7 | 9.74 | -12.6 | 1.94 |
| COc1cc2nccc(Oc3ccc(NC(=O)NC4CC4)c(Cl)c3)c2cc1C(N)=O [Lenvatinib] (top concentration 2500 nM) | 0.06 | 2.16 | 5.56 | 5.06 | -0.24 | 1.66 | -0.24 | 1.56 | -0.24 | -0.24 | 0.16 | 1.36 | 0.86 | -0.24 | -0.24 | 2.26 | 5.36 | 6.46 | -0.24 | 0.66 |
| N#Cc1ccc(C(c2ccc(C#N)cc2)n2cncn2)cc1 [Letrozole] (top concentration 10000 nM) | -0.04 | -0.04 | -0.04 | -0.04 | -0.04 | -0.04 | -0.04 | -0.04 | -0.04 | -0.04 | -0.04 | -0.04 | -0.04 | -0.04 | -0.04 | -0.04 | -0.04 | 0.36 | 1.16 | -0.04 |
| CCNCCS(=O)(=O)NC[C@@]1(c2ccccc2)SC(NC(=O)C(C)(C)C)=NN1C(=O)C(C)(C)C [Litronesib] (top concentration 1000 nM) | 19 | 20.9 | 19.2 | 21.3 | 19.5 | 22.1 | 4.44 | 18 | 19.7 | 19.2 | 21.9 | 18.4 | 20.6 | 8.54 | 10.9 | 21.4 | 22.1 | 21.7 | -7.36 | 9.64 |
| CC[C@H](C)C(=O)O[C@H]1C[C@@H](C)C=C2C=C[C@H](C)[C@H](CC[C@@H]3C[C@@H](O)CC(=O)O3)[C@H]21 [Lovastatin] (top concentration 10000 nM) | 7.8 | 0.1 | 0.9 | -0.1 | 3.6 | 0.1 | 0 | -0.1 | -0.1 | 0.1 | 3 | 2.7 | 4.3 | -0.1 | -0.1 | 1.2 | 0.2 | -0.1 | -0.1 | -0.1 |
| Cn1cc(-c2cnn3c(N)c(Br)c([C@@H]4CCCNC4)nc23)cn1 [MK-8776] (top concentration 2500 nM) | 3.64 | 1.54 | 2.04 | 0.64 | 6.14 | 0.34 | 0.54 | 2.64 | -1.46 | -1.46 | 0.34 | 1.54 | -0.46 | -0.46 | -1.46 | -0.26 | 3.94 | -0.06 | -1.46 | -1.46 |
| Cc1cnc(-c2ccccc2C(C)C)nc1NCc1ccc(-n2ccnn2)cc1 [ML323] (top concentration 10000 nM) | -0.36 | 3.54 | 2.64 | 1.84 | 1.04 | 2.04 | 2.04 | -0.36 | 0.64 | 4.14 | 4.64 | 0.04 | 1.14 | -0.36 | 0.14 | 4.24 | 3.34 | 2.94 | 1.44 | -0.26 |
| O=C(CCNC(=O)c1ccc(OC(F)(F)F)cc1)N[C@@H]1CCCc2ccccc21 [ML390] (top concentration 50000 nM) | 12.4 | 16.4 | 2 | 12.2 | 16.8 | 16.1 | 8.6 | 3.2 | 6.5 | 14.8 | 7.1 | 13.1 | 22.3 | 1.8 | -1.2 | 5.5 | 21 | 19.1 | 3.5 | -1.2 |
| CN(C)C(=N)NC(=N)N [Metformin] (top concentration 100000 nM) | -0.02 | -0.02 | -0.02 | -0.02 | -0.02 | -0.02 | -0.02 | -0.02 | -0.02 | -0.02 | -0.02 | -0.02 | -0.02 | -0.02 | -0.02 | -0.02 | -0.02 | -0.02 | -0.02 | -0.02 |
| C[C@H]1C[C@@H]2[C@H]([C@@H](O)C[C@@]3(C)[C@H]2CC[C@]3(O)C(=O)CO)[C@@]2(C)C=CC(=O)C=C12 [Methylprednisolone] (top concentration 10000 nM) | 27.2 | 22.3 | 10.9 | 13.9 | 5.4 | -0.7 | 22.9 | 18.5 | 5 | -2 | 16.4 | 4 | 21.1 | 31.6 | 24.8 | -1.5 | 30.2 | 32.9 | -2.3 | 15 |
| FC(F)(F)c1ccc(/C=C/c2nc(COc3ccc(CCCCn4ccnn4)cc3)co2)cc1 [Mubritinib] (top concentration 1000 nM) | 0.66 | 15.5 | 8.66 | 9.36 | 2.26 | 8.06 | 2.76 | -0.84 | 8.86 | 24 | 11.6 | 3.56 | 7.76 | 3.46 | -2.24 | 21.7 | 12.7 | 10.6 | 18.7 | 0.26 |
| COc1cc2c(cc1OC(C)C)[C@H](c1ccc(Cl)cc1)N(c1ccc(N(C)C[C@H]3CC[C@H](N4CCN(C)C(=O)C4)CC3)cc1)C(=O)C2 [NVP-CGM097] (top concentration 25000 nM) | 11.4 | 7.86 | -6.74 | 8.76 | 17.2 | 8.26 | 2.86 | 12.1 | -3.14 | -4.44 | -3.94 | 14.5 | 10.4 | 7.06 | -6.34 | -2.14 | 10.6 | 18.6 | -3.04 | 7.86 |
| CCOc1cc2ncc(C#N)c(Nc3ccc(OCc4ccccn4)c(Cl)c3)c2cc1NC(=O)/C=C/CN(C)C [Neratinib] (top concentration 1000 nM) | 4.98 | 6.28 | 1.08 | 1.78 | 1.18 | 1.88 | 5.68 | 7.78 | 2.38 | 1.48 | 2.28 | 3.68 | 2.28 | -0.22 | -0.32 | 2.88 | 5.38 | 1.48 | -0.72 | -0.52 |
| COc1ncc(-c2ccc3nccc(-c4ccnnc4)c3c2)cc1NS(=O)(=O)c1ccc(F)cc1F [Omipalisib] (top concentration 1000 nM) | 22.2 | 11.9 | 4.6 | 8.4 | 4 | 3.2 | 19.5 | 13.4 | 3.8 | 4.2 | 9.4 | 12.6 | 15.1 | 13.1 | 4.5 | -3 | 30 | 7.3 | -4 | -2.2 |
| CN1CCN(c2cc(C(=O)Nc3ccc4c(c3)-c3c(c(C(N)=O)nn3-c3ccc(F)cc3)CC4)c(Cl)cn2)CC1 [PHA-408] (top concentration 10000 nM) | 5.68 | 0.78 | 2.58 | 1.88 | -1.22 | 2.98 | 3.38 | -3.92 | -0.92 | 0.18 | 0.98 | 2.48 | 3.88 | 2.18 | -0.82 | 3.18 | 5.28 | 3.08 | -4.92 | -1.22 |
| OC[C@H]1O[C@@H](n2cnc3c2N=CNC[C@H]3O)C[C@@H]1O [Pentostatin] (top concentration 10000 nM) | -0.44 | -0.44 | -0.44 | -0.44 | -0.44 | -0.44 | 1.26 | -0.44 | -0.44 | -0.44 | -0.14 | -0.44 | -0.14 | -0.44 | -0.44 | -0.44 | -0.44 | 0.66 | 0.36 | -0.24 |
| CC(C)N(C[C@H]1O[C@@H](n2cnc3c(N)ncnc32)[C@H](O)[C@@H]1O)[C@H]1C[C@@H](CCc2nc3cc(C(C)(C)C)ccc3[nH]2)C1 [Pinometostat] (top concentration 1000 nM) | 0 | 0 | 0.2 | 0 | 0 | 0 | 0 | 0 | 0 | 0 | 0 | 0 | 0 | 0 | 0 | 0 | 0 | 0 | 0 | 0 |

— the supplement of paper PMC8967900
